Drawing on ChEMBL document CHEMBL1250451, “Mechanistic insights into a Ca2+-dependent family of alpha-mannosidases in a human gut symbiont” (Nat Chem Biol, 2010), this text covers Activity for four molecules.

Assay type in all cases: protein assay
Assay [1] deals with T1, Alpha-1,2-mannosidase, putative (BT_3130) (Bacteroides thetaiotaomicron) (UniProt Q8A325).
T1 sequence (whole entry): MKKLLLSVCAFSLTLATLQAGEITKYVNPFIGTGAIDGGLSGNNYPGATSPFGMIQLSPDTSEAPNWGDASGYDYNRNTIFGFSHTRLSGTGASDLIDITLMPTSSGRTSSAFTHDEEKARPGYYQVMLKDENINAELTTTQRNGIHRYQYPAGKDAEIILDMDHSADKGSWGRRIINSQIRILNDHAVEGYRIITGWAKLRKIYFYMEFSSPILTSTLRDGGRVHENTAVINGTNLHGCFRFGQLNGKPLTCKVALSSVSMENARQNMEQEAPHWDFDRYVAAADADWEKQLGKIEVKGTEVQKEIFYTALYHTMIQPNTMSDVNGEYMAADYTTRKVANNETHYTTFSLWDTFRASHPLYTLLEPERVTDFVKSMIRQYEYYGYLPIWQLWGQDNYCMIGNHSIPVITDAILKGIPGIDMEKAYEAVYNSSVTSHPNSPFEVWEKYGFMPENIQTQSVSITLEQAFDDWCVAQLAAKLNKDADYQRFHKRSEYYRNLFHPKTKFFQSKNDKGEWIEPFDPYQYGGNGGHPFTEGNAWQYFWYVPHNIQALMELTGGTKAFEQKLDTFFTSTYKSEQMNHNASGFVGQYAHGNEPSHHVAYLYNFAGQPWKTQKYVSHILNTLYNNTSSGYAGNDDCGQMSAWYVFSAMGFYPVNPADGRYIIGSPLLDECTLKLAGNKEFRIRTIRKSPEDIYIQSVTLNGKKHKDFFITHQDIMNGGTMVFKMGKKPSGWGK
In words: Activity of Bacteroides thetaiotaomicron GH92 alpha-mannosidase GH92 alpha-mannosidase 3130 assessed as mannose release at 1 mM after 16 hrs by HPLC relative to untreated control after 16 hrs by HPLC.

Assay [2] concerns the target T2, Alpha-1,2-mannosidase (BT_2199) (Bacteroides thetaiotaomicron) (UniProt Q8A5N9).
T2 sequence (whole entry): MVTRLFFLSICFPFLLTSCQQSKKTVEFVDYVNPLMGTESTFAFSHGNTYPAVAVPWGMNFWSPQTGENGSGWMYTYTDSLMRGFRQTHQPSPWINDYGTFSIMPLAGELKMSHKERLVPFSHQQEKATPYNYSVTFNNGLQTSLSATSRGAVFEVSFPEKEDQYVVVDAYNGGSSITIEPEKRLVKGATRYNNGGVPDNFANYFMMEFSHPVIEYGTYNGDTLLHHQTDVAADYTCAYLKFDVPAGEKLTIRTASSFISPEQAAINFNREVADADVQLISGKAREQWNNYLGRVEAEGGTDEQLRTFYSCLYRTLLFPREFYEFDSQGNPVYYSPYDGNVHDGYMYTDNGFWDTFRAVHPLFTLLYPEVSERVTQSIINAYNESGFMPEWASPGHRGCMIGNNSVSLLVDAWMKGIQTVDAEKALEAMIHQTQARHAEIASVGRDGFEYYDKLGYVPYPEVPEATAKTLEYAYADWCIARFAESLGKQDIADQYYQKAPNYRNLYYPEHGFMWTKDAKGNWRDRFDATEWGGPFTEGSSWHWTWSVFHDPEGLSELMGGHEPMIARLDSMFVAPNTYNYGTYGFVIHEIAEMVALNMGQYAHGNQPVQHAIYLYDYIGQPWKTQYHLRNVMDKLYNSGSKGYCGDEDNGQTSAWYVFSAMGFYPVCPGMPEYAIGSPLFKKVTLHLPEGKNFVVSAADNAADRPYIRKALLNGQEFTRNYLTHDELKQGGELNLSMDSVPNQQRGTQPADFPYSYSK
Kind of assay: Activity of Bacteroides thetaiotaomicron GH92 alpha-mannosidase 2199 assessed as recovery of enzyme activity at 1 mM in presence of 7 mM Be(2+) ions and in presence of 5 mM EDTA in 100 mM pH 7 MOPS buffer relative to enzyme activity in presence of calcium.

In assay [3] the target is T2, Alpha-1,2-mannosidase (BT_2199) (Bacteroides thetaiotaomicron). Kind of assay: Activity of Bacteroides thetaiotaomicron GH92 alpha-mannosidase 2199 assessed as recovery of enzyme activity at 1 mM in presence of 7 mM Sr(2+) ions and in presence of 5 mM EDTA in 100 mM pH 7 MOPS buffer relative to enzyme activity in presence of calcium.
For assay [4] the target is unchanged. In words: Activity of Bacteroides thetaiotaomicron GH92 alpha-mannosidase 2199 assessed as recovery of enzyme activity at 1 mM in presence of 7 mM Ca(2+) ions and in presence of 5 mM EGTA in 100 mM pH 7 MOPS buffer relative to enzyme activity in presence of calcium.
Assay [5] has the same target. In words: Activity of Bacteroides thetaiotaomicron GH92 alpha-mannosidase 2199 assessed as recovery of enzyme activity at 1 mM in presence of 7 mM Mn(2+) ions and in presence of 5 mM EGTA in 100 mM pH 7 MOPS buffer relative to enzyme activity in presence of calcium.
The target in assay [6] is T3, Alpha-1,2-mannosidase (BT_3990) (Bacteroides thetaiotaomicron) (UniProt Q8A0N1).
T3 sequence (whole entry): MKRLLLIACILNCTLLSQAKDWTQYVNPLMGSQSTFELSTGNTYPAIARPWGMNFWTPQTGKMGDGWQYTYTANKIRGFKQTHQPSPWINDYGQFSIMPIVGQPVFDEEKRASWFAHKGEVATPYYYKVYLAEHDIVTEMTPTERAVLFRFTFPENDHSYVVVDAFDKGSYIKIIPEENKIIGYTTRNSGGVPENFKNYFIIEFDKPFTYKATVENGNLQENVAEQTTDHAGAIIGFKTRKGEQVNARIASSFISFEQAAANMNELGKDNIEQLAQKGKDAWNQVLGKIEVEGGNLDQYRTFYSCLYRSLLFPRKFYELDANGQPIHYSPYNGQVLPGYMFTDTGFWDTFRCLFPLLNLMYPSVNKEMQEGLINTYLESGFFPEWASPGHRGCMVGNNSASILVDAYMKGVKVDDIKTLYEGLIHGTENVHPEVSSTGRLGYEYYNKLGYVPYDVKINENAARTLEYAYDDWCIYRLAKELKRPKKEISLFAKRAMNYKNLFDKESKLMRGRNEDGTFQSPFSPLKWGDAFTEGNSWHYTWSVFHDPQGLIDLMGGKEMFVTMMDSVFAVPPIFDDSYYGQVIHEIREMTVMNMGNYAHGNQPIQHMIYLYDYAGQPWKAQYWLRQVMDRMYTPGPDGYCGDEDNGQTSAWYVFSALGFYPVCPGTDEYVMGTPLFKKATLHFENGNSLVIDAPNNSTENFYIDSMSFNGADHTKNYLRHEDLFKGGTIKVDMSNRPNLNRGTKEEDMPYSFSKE
Kind of assay: Activity of Bacteroides thetaiotaomicron GH92 alpha-mannosidase 3990 assessed as recovery of enzyme activity at 1 mM in presence of 7 mM Ca(2+) ions and in presence of 5 mM EDTA in 100 mM pH 7 MOPS buffer relative to enzyme activity in presence of calcium.

Assay [7] addresses T3, Alpha-1,2-mannosidase (BT_3990) (Bacteroides thetaiotaomicron). Kind of assay: Activity of Bacteroides thetaiotaomicron GH92 alpha-mannosidase 3990 assessed as recovery of enzyme activity at 1 mM in presence of 7 mM Zn(2+) ions and in presence of 5 mM EGTA in 100 mM pH 7 MOPS buffer relative to enzyme activity in presence of calcium.

`OC[C@H]1O[C@H](O[C@H]2[C@@H](O)[C@H](O)[C@@H](CO)O[C@@H]2O)[C@@H](O)[C@@H](O)[C@@H]1O`: in assay [1], the Activity was 4.3%.
For the molecule `OC[C@H]1O[C@H](O[C@H]2[C@H](O)[C@H](O)[C@@H](O)O[C@@H]2CO)[C@@H](O)[C@@H](O)[C@@H]1O`, the Activity in assay [1] came out at 23%.
With `OC[C@H]1O[C@H](OC[C@H]2O[C@H](O)[C@@H](O)[C@@H](O)[C@@H]2O)[C@@H](O)[C@@H](O)[C@@H]1O`, the Activity in assay [1] was 21%.
Take `O=[N+]([O-])c1ccc(O[C@H]2O[C@H](CO)[C@@H](O)[C@H](O)[C@@H]2O)cc1`: the Activity in assay [2] amounted to 0%; in assay [3], 31%; in assay [4], 100%; in assay [5] it was 6%; in assay [6], 100%; in assay [7] it was 0%.
